# According to paper PMC8799717, “Pharmacological targeting PIKfyve and tubulin as an effective treatment strategy for double-hit lymphoma” (Cell Death Discovery, 2022):
# What was measured:
# Experiment in all cases: biochemical
# Design in all cases: KINOMEscan active-site-directed competition binding panel, 468 kinases, percent of DMSO control at 1 uM
# Settings in all cases: KINOMEscan binding, percent of DMSO control; read-out: Ctrl%
# [1] = molecular target: T1, MEK5 (Homo sapiens, UniProt Q13163)
# T1 construct: gene MAP2K5
# [2] = molecular target: T2, LOK (Homo sapiens, UniProt O94804)
# T2 construct: gene STK10
# T2 sequence (O94804 whole entry): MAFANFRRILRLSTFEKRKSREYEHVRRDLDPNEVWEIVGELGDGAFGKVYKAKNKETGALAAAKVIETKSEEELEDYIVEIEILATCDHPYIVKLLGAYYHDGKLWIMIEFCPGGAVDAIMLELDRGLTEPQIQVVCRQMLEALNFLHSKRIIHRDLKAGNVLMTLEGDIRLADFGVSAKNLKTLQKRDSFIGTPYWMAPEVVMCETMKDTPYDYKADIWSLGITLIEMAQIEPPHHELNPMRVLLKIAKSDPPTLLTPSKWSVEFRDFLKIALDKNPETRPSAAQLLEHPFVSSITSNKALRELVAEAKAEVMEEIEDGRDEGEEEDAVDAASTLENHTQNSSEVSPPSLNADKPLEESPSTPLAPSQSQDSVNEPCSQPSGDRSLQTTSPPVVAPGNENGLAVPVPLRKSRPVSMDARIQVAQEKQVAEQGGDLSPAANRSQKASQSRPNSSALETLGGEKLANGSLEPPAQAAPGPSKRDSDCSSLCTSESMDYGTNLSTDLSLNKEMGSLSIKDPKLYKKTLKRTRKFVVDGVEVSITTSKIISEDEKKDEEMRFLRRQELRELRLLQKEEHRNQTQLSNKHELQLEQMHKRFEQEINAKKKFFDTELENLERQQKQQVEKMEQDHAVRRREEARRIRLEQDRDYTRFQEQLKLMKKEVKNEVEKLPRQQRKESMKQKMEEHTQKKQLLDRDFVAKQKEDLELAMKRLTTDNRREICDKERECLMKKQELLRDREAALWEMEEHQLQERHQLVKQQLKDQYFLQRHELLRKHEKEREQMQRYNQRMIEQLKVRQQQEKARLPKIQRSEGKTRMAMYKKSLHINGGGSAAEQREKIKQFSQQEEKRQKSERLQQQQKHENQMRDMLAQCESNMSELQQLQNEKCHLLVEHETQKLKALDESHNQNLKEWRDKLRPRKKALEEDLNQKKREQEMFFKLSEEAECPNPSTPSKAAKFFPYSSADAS
# [3] = molecular target: RET(V804L) (Homo sapiens, UniProt P07949, V804L)
# [4] = molecular target: PIK3CA(E545A) (Homo sapiens, UniProt P42336, E545A)
# Chain of PIK3CA(E545A) (P42336 whole entry E545A): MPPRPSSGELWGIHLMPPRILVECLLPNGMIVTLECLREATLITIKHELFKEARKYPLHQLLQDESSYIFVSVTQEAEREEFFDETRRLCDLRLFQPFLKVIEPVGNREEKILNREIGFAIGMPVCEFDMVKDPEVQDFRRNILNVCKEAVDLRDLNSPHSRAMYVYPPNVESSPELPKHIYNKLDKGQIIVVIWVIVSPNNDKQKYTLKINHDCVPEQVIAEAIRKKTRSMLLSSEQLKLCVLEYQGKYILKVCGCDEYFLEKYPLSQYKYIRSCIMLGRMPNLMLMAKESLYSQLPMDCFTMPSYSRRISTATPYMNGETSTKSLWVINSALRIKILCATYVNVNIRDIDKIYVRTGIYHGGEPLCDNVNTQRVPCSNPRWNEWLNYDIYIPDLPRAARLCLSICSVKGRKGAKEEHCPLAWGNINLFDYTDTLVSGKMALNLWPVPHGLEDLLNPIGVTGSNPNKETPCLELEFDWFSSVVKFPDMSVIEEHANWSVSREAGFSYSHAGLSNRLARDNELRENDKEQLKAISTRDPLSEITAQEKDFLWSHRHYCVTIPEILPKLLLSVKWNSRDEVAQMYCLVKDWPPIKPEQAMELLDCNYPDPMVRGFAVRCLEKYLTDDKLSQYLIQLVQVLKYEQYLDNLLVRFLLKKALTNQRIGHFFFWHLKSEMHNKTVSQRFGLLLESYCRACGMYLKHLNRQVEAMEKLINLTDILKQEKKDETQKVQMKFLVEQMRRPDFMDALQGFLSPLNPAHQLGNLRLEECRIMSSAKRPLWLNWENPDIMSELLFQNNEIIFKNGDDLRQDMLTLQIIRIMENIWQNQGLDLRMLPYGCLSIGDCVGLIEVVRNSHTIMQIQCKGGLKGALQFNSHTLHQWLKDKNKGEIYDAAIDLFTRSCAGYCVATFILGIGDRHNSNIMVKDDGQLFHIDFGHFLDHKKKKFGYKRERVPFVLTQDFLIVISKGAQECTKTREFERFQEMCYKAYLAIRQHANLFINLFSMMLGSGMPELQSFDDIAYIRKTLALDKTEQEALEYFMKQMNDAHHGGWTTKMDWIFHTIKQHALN
# [5] = molecular target: AKT3 (Homo sapiens, UniProt Q9Y243)
# [6] = molecular target: T3, NIK (Homo sapiens, UniProt Q99558)
# T3 construct: gene MAP3K14
# [7] = molecular target: T4, PIP5K2B (Homo sapiens, UniProt P78356)
# T4 construct: gene PIP4K2B
# T4 sequence (P78356 whole entry): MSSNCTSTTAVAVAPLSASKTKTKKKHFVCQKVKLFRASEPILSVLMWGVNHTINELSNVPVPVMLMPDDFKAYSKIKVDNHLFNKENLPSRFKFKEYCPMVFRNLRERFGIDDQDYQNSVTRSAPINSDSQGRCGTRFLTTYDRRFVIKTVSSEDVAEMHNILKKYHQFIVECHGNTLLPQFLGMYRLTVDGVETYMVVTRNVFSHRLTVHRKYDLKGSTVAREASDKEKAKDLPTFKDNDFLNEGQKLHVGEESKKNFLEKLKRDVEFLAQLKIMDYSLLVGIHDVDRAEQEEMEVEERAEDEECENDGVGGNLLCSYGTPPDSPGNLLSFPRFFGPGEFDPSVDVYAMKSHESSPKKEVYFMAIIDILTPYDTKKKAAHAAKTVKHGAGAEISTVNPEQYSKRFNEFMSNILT
# [8] = molecular target: T5, OSR1 (Homo sapiens, UniProt O95747)
# T5 construct: gene OXSR1
# [9] = molecular target: T6, JAK1(JH1domain-catalytic) (Homo sapiens, UniProt P23458)
# T6 construct: JH1domain-catalytic
# [10] = molecular target: CDKL3 (Homo sapiens, UniProt Q8IVW4)
# [11] = molecular target: T7, DRAK1 (Homo sapiens, UniProt Q9UEE5)
# T7 construct: gene STK17A
# [12] = molecular target: T8, PFTAIRE2 (Homo sapiens, UniProt Q96Q40)
# T8 construct: gene CDK15
# [13] = molecular target: TBK1 (Homo sapiens, UniProt Q9UHD2)
# [14] = molecular target: FER (Homo sapiens, UniProt P16591)
# Chain of FER (P16591 whole entry): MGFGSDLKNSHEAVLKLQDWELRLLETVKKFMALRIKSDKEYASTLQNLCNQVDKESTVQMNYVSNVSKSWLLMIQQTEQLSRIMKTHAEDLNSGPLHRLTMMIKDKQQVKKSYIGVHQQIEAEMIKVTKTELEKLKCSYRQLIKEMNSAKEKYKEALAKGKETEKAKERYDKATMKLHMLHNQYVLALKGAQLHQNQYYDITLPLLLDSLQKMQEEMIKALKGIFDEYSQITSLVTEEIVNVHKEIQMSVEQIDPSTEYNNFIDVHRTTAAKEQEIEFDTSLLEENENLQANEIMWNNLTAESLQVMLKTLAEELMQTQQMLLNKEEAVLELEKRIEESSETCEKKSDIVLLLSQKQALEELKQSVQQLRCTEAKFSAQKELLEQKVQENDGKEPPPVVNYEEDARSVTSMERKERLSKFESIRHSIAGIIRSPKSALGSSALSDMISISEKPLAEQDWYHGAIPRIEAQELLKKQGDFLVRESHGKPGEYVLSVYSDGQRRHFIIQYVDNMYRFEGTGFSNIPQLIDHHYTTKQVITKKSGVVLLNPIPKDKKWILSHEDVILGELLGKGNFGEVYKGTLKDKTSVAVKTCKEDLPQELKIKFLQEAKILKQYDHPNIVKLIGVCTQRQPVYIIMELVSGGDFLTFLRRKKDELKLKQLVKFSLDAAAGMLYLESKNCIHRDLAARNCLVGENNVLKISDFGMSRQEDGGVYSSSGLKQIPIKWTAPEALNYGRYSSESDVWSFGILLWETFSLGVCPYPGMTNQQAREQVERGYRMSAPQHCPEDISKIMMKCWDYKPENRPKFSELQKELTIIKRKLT
# [15] = molecular target: PAK2 (Homo sapiens, UniProt Q13177)
# [16] = molecular target: CAMK2B (Homo sapiens, UniProt Q13554)
# [17] = molecular target: EGFR(L858R) (Homo sapiens, UniProt P00533, L858R)
# [18] = molecular target: MAP4K2 (Homo sapiens, UniProt Q12851)
# Chain of MAP4K2 (Q12851 whole entry): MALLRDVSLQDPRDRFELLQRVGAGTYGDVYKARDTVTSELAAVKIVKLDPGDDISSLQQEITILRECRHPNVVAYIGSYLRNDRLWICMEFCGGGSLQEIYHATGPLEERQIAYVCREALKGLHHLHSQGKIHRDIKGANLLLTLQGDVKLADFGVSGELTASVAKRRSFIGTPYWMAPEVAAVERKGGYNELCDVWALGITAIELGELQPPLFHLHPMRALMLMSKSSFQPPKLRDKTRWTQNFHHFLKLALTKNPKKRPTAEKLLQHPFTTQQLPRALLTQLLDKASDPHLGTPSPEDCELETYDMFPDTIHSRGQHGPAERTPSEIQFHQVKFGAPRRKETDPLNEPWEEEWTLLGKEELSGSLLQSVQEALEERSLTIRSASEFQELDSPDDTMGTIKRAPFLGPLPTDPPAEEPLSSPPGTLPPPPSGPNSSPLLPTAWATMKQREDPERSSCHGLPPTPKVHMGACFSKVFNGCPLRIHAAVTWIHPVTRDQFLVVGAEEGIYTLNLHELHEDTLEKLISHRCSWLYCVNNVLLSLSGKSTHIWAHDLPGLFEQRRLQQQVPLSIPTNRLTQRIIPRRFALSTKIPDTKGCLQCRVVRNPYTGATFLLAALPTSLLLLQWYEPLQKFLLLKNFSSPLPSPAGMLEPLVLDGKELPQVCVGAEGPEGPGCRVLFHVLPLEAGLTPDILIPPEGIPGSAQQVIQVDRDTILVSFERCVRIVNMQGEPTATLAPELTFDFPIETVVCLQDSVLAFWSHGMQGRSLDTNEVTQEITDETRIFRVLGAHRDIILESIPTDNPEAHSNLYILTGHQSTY
# [19] = molecular target: T9, RPS6KA5(Kin.Dom.2-C-terminal) (Homo sapiens, UniProt O75582)
# T9 construct: Kin.Dom.2-C-terminal
# T9 sequence (O75582 whole entry): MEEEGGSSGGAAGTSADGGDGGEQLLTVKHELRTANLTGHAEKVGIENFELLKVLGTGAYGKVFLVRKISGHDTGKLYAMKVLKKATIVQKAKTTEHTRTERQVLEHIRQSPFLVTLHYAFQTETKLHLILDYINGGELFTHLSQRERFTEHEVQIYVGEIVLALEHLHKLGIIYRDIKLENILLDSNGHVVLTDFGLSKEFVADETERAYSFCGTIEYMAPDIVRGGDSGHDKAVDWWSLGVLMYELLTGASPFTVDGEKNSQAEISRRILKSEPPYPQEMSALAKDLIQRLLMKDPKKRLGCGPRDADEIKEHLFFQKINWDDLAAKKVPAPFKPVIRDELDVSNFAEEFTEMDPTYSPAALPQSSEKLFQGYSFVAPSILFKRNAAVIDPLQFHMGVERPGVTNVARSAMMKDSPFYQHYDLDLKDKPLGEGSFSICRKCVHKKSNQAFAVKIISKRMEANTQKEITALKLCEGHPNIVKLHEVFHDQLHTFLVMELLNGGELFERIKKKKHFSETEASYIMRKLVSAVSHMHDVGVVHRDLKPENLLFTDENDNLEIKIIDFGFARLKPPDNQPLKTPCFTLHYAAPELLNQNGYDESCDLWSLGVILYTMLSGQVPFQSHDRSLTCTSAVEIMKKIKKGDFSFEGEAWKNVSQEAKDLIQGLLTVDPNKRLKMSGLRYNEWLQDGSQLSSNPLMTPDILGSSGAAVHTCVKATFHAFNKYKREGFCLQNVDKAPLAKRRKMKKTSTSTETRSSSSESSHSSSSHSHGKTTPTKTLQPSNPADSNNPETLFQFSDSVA
# [20] = molecular target: T10, JAK2(JH1domain-catalytic) (Homo sapiens, UniProt O60674)
# T10 construct: JH1domain-catalytic
# [21] = molecular target: T11, ABL1(M351T)-phosphorylated (Homo sapiens, UniProt P00519, M351T)
# T11 construct: phosphorylated
# [22] = molecular target: ERN1 (Homo sapiens, UniProt O75460)
# [23] = molecular target: ALK(C1156Y) (Homo sapiens, UniProt Q9UM73, C1156Y)
structure (smiles),measurement,setting,value
Cc1ccc(NC(=O)c2cccc(C(F)(F)F)c2)cc1Nc1cc(-c2cccnc2)nc2[nH]ccc12 [HZX-02-059],remaining binding at 1 µM,[1],83%
same,remaining binding at 1 µM,[2],47%
same,remaining binding at 1 µM,[3],100%
same,remaining binding at 1 µM,[4],88%
same,remaining binding at 1 µM,[5],69%
same,remaining binding at 1 µM,[6],61%
same,remaining binding at 1 µM,[7],76%
same,remaining binding at 1 µM,[8],97%
same,remaining binding at 1 µM,[9],100%
same,remaining binding at 1 µM,[10],84%
same,remaining binding at 1 µM,[11],83%
same,remaining binding at 1 µM,[12],81%
same,remaining binding at 1 µM,[13],100%
same,remaining binding at 1 µM,[14],77%
same,remaining binding at 1 µM,[15],88%
same,remaining binding at 1 µM,[16],94%
same,remaining binding at 1 µM,[17],87%
same,remaining binding at 1 µM,[18],96%
same,remaining binding at 1 µM,[19],99%
same,remaining binding at 1 µM,[20],100%
same,remaining binding at 1 µM,[21],48%
same,remaining binding at 1 µM,[22],66%
same,remaining binding at 1 µM,[23],99%
